According to patent US6586368B1, “Condensed heterocylic compounds and herbicides containing them” (Sumitomo Chemical Company, Limited, priority 1998, dated 2003):

How the values were obtained:
Format in all cases: in vivo
[1] = test system: barnyardgrass (Echinochloa oryzicola); experiment: Test Example 4: flooded paddy field treatment of barnyardgrass in pots, herbicidal activity; conditions: emulsifiable concentrate applied on the water surface of flooded pots, dosage of 1000 g/ha, 50 liters per are, plants 12 days after seeding, examined after 9 days in greenhouse
[2] = test system: velvetleaf (Abutilon theophrasti); experiment: Test Example 1: foliage treatment of velvetleaf in pots, herbicidal activity; conditions: emulsifiable concentrate sprayed over the foliage, dosage of 2000 g/ha, 1000 liters per hectare, plants 14 days after seeding, examined after 8 days in greenhouse
[3] = test system: velvetleaf (Abutilon theophrasti); experiment: Test Example 3: soil surface treatment, velvetleaf seeded in pots, herbicidal activity; conditions: emulsifiable concentrate sprayed over the surface of the soil after seeding, dosage of 2000 g/ha, 1000 liters per hectare, examined after 9 days in greenhouse

| Structure (SMILES) | herbicidal activity: growth of barnyardgrass [1] | herbicidal activity: growth of velvetleaf [2] | herbicidal activity: germination of velvetleaf [3] |
| --- | --- | --- | --- |
| Cc1cc2c(-n3c(=O)cc(C(F)(F)F)n(C)c3=O)coc2cc1[N+](=O)[O-] [Compound 1-361] | completely inhibited the growth | completely inhibited the growth | completely inhibited the germination |
| CCOC(=O)C(C)Oc1cc2c(-n3c(=O)cc(C(F)(F)F)n(C)c3=O)coc2cc1Cl (stereo not drawn) [Compound 1-129, Ethyl 2-({6-chloro-3-[3-methyl-2,6-dioxo-4-(trifluoromethyl)-1,2,3,6-tetrahydropyrimidin-1-yl]benzo[b]furan-5-yl}oxy)propanoate] | completely inhibited the growth | completely inhibited the growth | completely inhibited the germination |
| CCOC(=O)C(Cl)Cc1ccc2occ(-n3c(=O)cc(C(F)(F)F)n(C)c3=O)c2c1 (stereo not drawn) [Compound 1-407] | completely inhibited the growth | completely inhibited the growth | completely inhibited the germination |
| CCOC(=O)C(C)Oc1ccc2occ(-n3c(=O)cc(C(F)(F)F)n(C)c3=O)c2c1 (stereo not drawn) [Compound 1-127, Ethyl 2-({3-[3-methyl-2,6-dioxo-4-(trifluoromethyl)-1,2,3,6-tetrahydropyrimidin-1-yl]benzo[b]furan-5-yl}oxy)propanoate] | completely inhibited the growth | completely inhibited the growth | completely inhibited the germination |
| Cn1c(C(F)(F)F)cc(=O)n(-c2coc3ccc(Cl)cc23)c1=O [Compound 1-4] | completely inhibited the growth | completely inhibited the growth | completely inhibited the germination |
| Cn1c(C(F)(F)F)cc(=O)n(-c2coc3cc([N+](=O)[O-])c(O)cc23)c1=O [Compound 1-82] | completely inhibited the growth | completely inhibited the growth | completely inhibited the germination |
| CNc1ccc2occ(-n3c(=O)cc(C(F)(F)F)n(C)c3=O)c2c1 [Compound 1-8] | completely inhibited the growth | completely inhibited the growth | completely inhibited the germination |
| Cn1c(C(F)(F)F)cc(=O)n(-c2coc3ccc(NS(C)(=O)=O)cc23)c1=O [Compound 1-10] | completely inhibited the growth | completely inhibited the growth | completely inhibited the germination |
| Cn1c(C(F)(F)F)cc(=O)n(-c2coc3cc(Cl)ccc23)c1=O [Compound 1-861] | completely inhibited the growth | completely inhibited the growth | completely inhibited the germination |
| Cc1cc(Cl)c2occ(-n3c(=O)cc(C(F)(F)F)n(C)c3=O)c2c1 [Compound 1-358] | completely inhibited the growth | completely inhibited the growth | completely inhibited the germination |
| CC(=O)Nc1ccc2occ(-n3c(=O)cc(C(F)(F)F)n(C)c3=O)c2c1 [Compound 1-24] |  | completely inhibited the growth | completely inhibited the germination |
| COc1cc2c(-n3c(=O)cc(C(F)(F)F)n(C)c3=O)coc2cc1Cl [Compound 1-84, 3-(6-Chloro-5-methoxybenzo[b]furan-3-yl)-1-methyl-6-(trifluoromethyl)-1,2,3,4-tetrahydropyrimidine-2,4-dione] | completely inhibited the growth | completely inhibited the growth | completely inhibited the germination |
| COC(=O)c1ccc2occ(-n3c(=O)cc(C(F)(F)F)n(C)c3=O)c2c1 [Compound 1-303, Methyl 3-[3-methyl-2,6-dioxo-4-(trifluoromethyl)-1,2,3,6-tetrahydropyrimidin-1-yl]benzo[b]furan-5-carboxylate] | completely inhibited the growth | completely inhibited the growth | completely inhibited the germination |
| COc1ccc2occ(-n3c(=O)cc(C(F)(F)F)n(C)c3=O)c2c1 [Compound 1-5, 3-(5-Methoxybenzo[b]furan-3-yl)-1-methyl-6-(trifluoromethyl)-1,2,3,4-tetrahydropyrimidine-2,4-dione] | completely inhibited the growth | completely inhibited the growth | completely inhibited the germination |
| O=C1C2=C(CCCC2)C(=O)N1c1noc2ccccc12 [Compound 2-4] |  | completely inhibited the growth |  |
| CCOC(=O)C(C)Nc1ccc2occ(-n3c(=O)cc(C(F)(F)F)n(C)c3=O)c2c1 (stereo not drawn) [Compound 1-11] | completely inhibited the growth | completely inhibited the growth | completely inhibited the germination |
| Cn1c(C(F)(F)F)cc(=O)n(-c2csc3cc(Cl)ccc23)c1=O [Compound 1-864] | completely inhibited the growth |  |  |
| Cn1c(C(F)(F)F)cc(=O)n(-c2csc3ccccc23)c1=O [Compound 1-3] | completely inhibited the growth | completely inhibited the growth | completely inhibited the germination |
| Cn1c(C(F)(F)F)cc(=O)n(-c2coc3c(Cl)cc(Cl)cc23)c1=O [Compound 1-2, 3-(5,7-Dichlorobenzo[b]furan-3-yl)-1-methyl-6-(trifluoromethyl)-1,2,3,4-tetrahydropyrimidine-2,4-dione] | completely inhibited the growth | completely inhibited the growth | completely inhibited the germination |
| COc1cc2c(-n3c(=O)cc(C(F)(F)F)n(C)c3=O)coc2cc1[N+](=O)[O-] [Compound 1-86, 3-(5-Methoxy-6-nitrobenzo[b]furan-3-yl)-1-methyl-6-(trifluoromethyl)-1,2,3,4-tetrahydropyrimidine-2,4-dione] | completely inhibited the growth | completely inhibited the growth | completely inhibited the germination |
| CC(=O)N(C)c1ccc2occ(-n3c(=O)cc(C(F)(F)F)n(C)c3=O)c2c1 [Compound 1-28] |  | completely inhibited the growth | completely inhibited the germination |
| Cn1c(C(F)(F)F)cc(=O)n(-c2coc3ccc(Br)cc23)c1=O [Compound 1-75] | completely inhibited the growth | completely inhibited the growth | completely inhibited the germination |
| CCOC(=O)C(C)Oc1cc2c(-n3c(=O)cc(C(F)(F)F)n(C)c3=O)coc2cc1[N+](=O)[O-] (stereo not drawn) [Compound 1-131] | completely inhibited the growth | completely inhibited the growth | completely inhibited the germination |
| CN(C)c1ccc2occ(-n3c(=O)cc(C(F)(F)F)n(C)c3=O)c2c1 [Compound 1-9] | completely inhibited the growth | completely inhibited the growth | completely inhibited the germination |
| CSc1cc2c(-n3c(=O)cc(C(F)(F)F)n(C)c3=O)coc2cc1[N+](=O)[O-] [Compound 1-201, 1-Methyl-3-[5-(methylthio)-6-nitrobenzo[b]furan-3-yl]-6-(trifluoromethyl)-1,2,3,4-tetrahydropyrimidine-2,4-dione] | completely inhibited the growth | completely inhibited the growth | completely inhibited the germination |
| Cn1c(C(F)(F)F)cc(=O)n(-c2coc3cc([N+](=O)[O-])c(F)cc23)c1=O [Compound 1-431] | completely inhibited the growth | completely inhibited the growth | completely inhibited the germination |
